Test results taken from US12440457B2, “Methods of treating suicidality” (Seelos Therapeutics, Inc., priority 2020, dated 2025).

Assays:
[1] = Pham et al. 2018; cited from earlier work
[2] = test system: adults with major depressive disorder at imminent risk of suicide; experiment: Phase 2 study, MADRS total score; assay type: in vivo, human
Source text: The Montgomery-Asberg Depression Rating Scale (MADRS) is a diagnostic questionnaire that can be used to measure the severity of a depressive episode in a subject. In some embodiments, the MADRS can be used to measure suicidal ideation. For example, the MADRS includes 10 items directed to the following: 1) apparent sadness (e.g., representing despondency, gloom and despair that is more than just ordinary transient low spirits that is reflected in speech, facial expression, and posture); 2) reported sadness (e.g., representing reports of depressed mood, regardless of whether it is reflected in appearance or not and can include low spirits, despondency or the feeling of being beyond help and without hope); 3) inner tension (e.g., representing feelings of ill-defined discomfort, edginess, inner turmoil, mental tension mounting to either panic, dread or anguish); 4) reduced sleep (e.g., representing the experience of reduced duration or depth of sleep compared to the subject's own normal pattern when well); 5) reduced appetite (e.g., representing the feeling of a loss of appetite compared with when-well); 6) concentration difficulties (e.g., representing difficulties in collecting one's thoughts mounting to an incapacitating lack of concentration); 7) lassitude (e.g., representing difficulty in getting started or slowness in initiating and performing everyday activities); 8) inability to feel (e.g., representing the subjective experience of reduced interest in the surroundings, or activities that normally give pleasure, and the ability to react with adequate emotion to circumstances or people is reduced); 9) pessimistic thoughts (e.g., representing thoughts of guilt, inferiority, self-reproach, sinfulness, remorse and ruin); and 10) suicidal thoughts (e.g., representing the feeling that life is not worth living, that a natural death would be welcome, suicidal thoughts, and preparations for suicide). Each item is rated from 0 to 6, with 0 reflecting that the subject is not at all as described by the item and 6 reflecting that the subject is extremely like what is described by the item. […] As another example, for suicidal thoughts, a score of 0 can indicate that the subject enjoys life or takes it as it comes; a score of 2 can indicate that the subject is weary of life and may have fleeting suicidal thoughts; a score of 4 can indicate that the subject feels he or she would probably be better off dead (e.g., suicidal thoughts are common, and suicide is considered as a possible solution, but without specific plans or intention); and a score of 6 can indicate that the subject has explicit plans for suicide when there is an opportunity (e.g., the subject has made active preparations for suicide). […]

[3] = test system: adults with major depressive disorder at imminent risk of suicide; experiment: Phase 2 study, S-STS CMCM Risk of Suicide at Within the Next 7 Days; assay type: in vivo, human
Source text: FIGS. 21A-21B are a table (FIG. 21A) and a graph (FIG. 21B) describing the STS CMCM (“risk of suicide at within the next 7 day”) scores for Subject 1 and Subject 2 from Day 1 to Day 9 described in Example 3 of the study.
(§1) The S-STS CMCM (version 01/01/19) is a clinician-rated outcome measure which assesses SIB on a standard 22-item scale, as well as multiple patient and clinician-rated items. The first 16 items are rated on a Likert-type scale ranging from “not at all” (0) to “extremely” (4), where select scoring (i.e., 4 specific items are scored based on the highest score on 2 of those items) yields a total score ranging from 0 to 52. The final 6 items are used only when the patient misses a visit and is unable to complete the scale; if that missed visit is due to attempted or completed suicide, the possible maximum score is 100. The CMCM also yields 5 different single-item global assessments: 1) subject-rated likelihood of a suicide attempt; 2) subject-rated treatment needed; 3) clinician global severity of suicidal impulses, thoughts, and behaviors; 4) clinician judgment of suicide risk at this time and level of management needed for suicidality; and 5) clinician judgment of subject's likelihood of making a suicide attempt or of dying by suicide in the next 7 days.
(§2) The secondary endpoints will be the change from baseline at 24 hours, as well as at Day 16, in the following: • (1) S-STS total score • (2) MADRS total score at Day 16 (only) • (3) Clinical Global Impression (CGI) of Severity for SI/B (CGIS-SI/B) and Change in SI/B (CGIC-SI/B) • (4) Patient Global Impression (PGI) of Severity for SI/B (PGIS-SI/B) and Change in SI/B (PGIC-SI/B • (5) S-STS Clinician-Rated Global Severity of Suicidal Impulses, Thoughts, and Behaviors • (6) S-STS Clinician judgment of subject's risk of a suicide attempt or death by suicide at this time • (7) S-STS Clinician judgment of subject's likelihood (risk) of making a suicide attempt or of dying by suicide in the next 7 days • (8) S-STS Subject-rated global severity of suicidal impulses, thoughts, and behavior • (9) S-STS Subject-rated treatment needed score • (10) MADRS item 10 response rate (response ≤3) • (11) MADRS response (total score ≥50% reduction from baseline) • (12) MADRS remission (total score ≤12) Exploratory Endpoint:
(§3) This study is currently underway.

[4] = Leung and Baillie 1986; cited from earlier work
[5] = test system: adults with major depressive disorder at imminent risk of suicide; experiment: Phase 2 study, MADRS item 10 (suicidality); assay type: in vivo, human; conditions: baseline 5
Source text: The Montgomery-Asberg Depression Rating Scale (MADRS) is a diagnostic questionnaire that can be used to measure the severity of a depressive episode in a subject. In some embodiments, the MADRS can be used to measure suicidal ideation. […]

[6] = test system: adults with major depressive disorder at imminent risk of suicide; experiment: Phase 2 study, S-STS CMCM total score; assay type: in vivo, human
Source text: The S-STS CMCM (version 01/01/19) is a clinician-rated outcome measure which assesses SIB on a standard 22-item scale, as well as multiple patient and clinician-rated items. The first 16 items are rated on a Likert-type scale ranging from “not at all” (0) to “extremely” (4), where select scoring (i.e., 4 specific items are scored based on the highest score on 2 of those items) yields a total score ranging from 0 to 52. The final 6 items are used only when the patient misses a visit and is unable to complete the scale; if that missed visit is due to attempted or completed suicide, the possible maximum score is 100. The CMCM also yields 5 different single-item global assessments: 1) subject-rated likelihood of a suicide attempt; 2) subject-rated treatment needed; 3) clinician global severity of suicidal impulses, thoughts, and behaviors; 4) clinician judgment of suicide risk at this time and level of management needed for suicidality; and 5) clinician judgment of subject's likelihood of making a suicide attempt or of dying by suicide in the next 7 days. […]

[7] = test system: adults with major depressive disorder at imminent risk of suicide; experiment: Phase 2 study, CADSS dissociation
[8] = test system: adults with major depressive disorder at imminent risk of suicide; experiment: Phase 2 study, overall preliminary outcome; assay type: in vivo, human; conditions: two subjects, first eight days
Source text: as §3

[9] = test system: adults with major depressive disorder at imminent risk of suicide; experiment: Phase 2 study, S-STS CMCM risk of suicide at this time; assay type: in vivo, human
Source text: FIGS. 20A-20B are a table (FIG. 20A) and a graph (FIG. 20B) describing the STS CMCM (“risk of suicide at this time”) scores for Subject 1 and Subject 2 from Day 1 to Day 9 described in Example 3 of the study.
as §1, §2, §3

[10] = Subject 2, 24 hours post-administration, baseline 7

In the case of `CNC1(c2ccccc2Cl)CCCCC1=O` (racemic) [intranasal racemic ketamine, racemic ketamine], the antidepressant properties [1] is given as “exhibit antidepressant properties”, the MADRS total score ([2]; Subject 1, 24 hours post-administration, 90 mg IN plus SOC, baseline 35) is given as 8 and the MADRS total score ([2]; Subject 2, 24 hours post-administration, 90 mg IN plus SOC, baseline 38) is given as 15. For the same compound, the MADRS total score ([2]; Subject 2, Day 8, after second dose on Day 4) was 16, the “reduction of MADRS total score” value ([2]; both subjects, 24 hours post-administration) was > 50% and the “S-STS CMCM Risk of Suicide at Within the Next 7 Days score (range 1-10)” value (“S-STS CMCM Risk of Suicide” for short) ([3]; Subject 1, 24 hours post-administration, baseline 5) was 2. The “S-STS CMCM Risk of Suicide” value [3, 10] was 1, the “S-STS CMCM Risk of Suicide” value ([3]; the scores, Day 4) was 1 and the “S-STS CMCM Risk of Suicide” value ([3]; the scores, Day 8) was 0. For the same compound, the “movement during the anesthetic recovery phase” value [4] was “increased movement”, the “MADRS item 10 (suicidality) score (range 0-6)” value ([5]; Subject 1, 24 hours post-administration) was 0 and the “MADRS item 10 (suicidality) score (range 0-6)” value ([5]; second subject (not given), 24 hours post-administration) was 0. For the same compound, the “S-STS CMCM score (range 0-52)” value ([6]; Subject 1, 24 hours post-administration, baseline 18) was “zero”, the “S-STS CMCM score (range 0-52)” value ([6]; Subject 2, 24 hours post-administration, baseline 22) was 3 and the “CADSS score (dissociation)” value ([7]; Subject 1, all time points, clinical threshold score ≥4) was “zero”. The “CADSS score (dissociation)” value ([7]; Subject 2, 40 minutes post-administration, clinical threshold score ≥4) was 2, the “CADSS score (dissociation)” value ([7]; Subject 2, 1 hour post-administration) was “zero” and the “improvements in depression and suicidality, preliminary data” value [8] was “rapid, significant, and sustained improvements in depression and suicidality”. The “sedation or dissociation, preliminary data” value [8] was “no meaningful sedation or dissociation”, the “S-STS CMCM score (range 0-9), risk of suicide at this time” value (shortened to “S-STS CMCM score (range 0-9), risk”) ([9]; Subject 1, 24 hours post-administration, baseline 7) was 3 and the “S-STS CMCM score (range 0-9), risk” value ([9]; Subject 1, Day 9) was 2. For the same compound, the “S-STS CMCM score (range 0-9), risk” value [9, 10] was 3, the “S-STS CMCM score (range 0-9), risk” value ([9]; Subject 2, Day 9) was “zero” and the “S-STS CMCM score (range 0-9), risk” value ([9]; both subjects, Day 8) was 2.
In the case of `NC1(c2ccccc2Cl)CCCC(O)C1=O` (centres unmarked) [6-hydroxynorketamine], the antidepressant properties [1] is given as “exhibit antidepressant properties”.
For `NC1(c2ccccc2Cl)CCCCC1=O` (centres unmarked) [norketamine], the “movement during the anesthetic recovery phase” value [4] is listed as “increased movement”.
